Laboratory results: ChEMBL document CHEMBL1671661, “Inhibition of intracellular growth of Salmonella enterica serovar Typhimurium in tissue culture by antisense peptide-phosphorodiamidate morpholino oligomer” (Antimicrob Agents Chemother, 2009)
In brackets after ≈: the same amount, converted by molar mass. Activity calls are given as the source filed them. The calls are words filed in the database; no cut-off is given here.

How the values were obtained:
Salmonella typhimurium [1] = test: Antibacterial activity against 9.0 x 10^7 CFU/ml Salmonella enterica serovar Typhimurium 14028s infected in RAW264.7 mouse macrophages assessed as decrease in intracellular bacterial level at 3 uM measured 42 hrs post infection relative to untreated control; type: functional
Salmonella typhimurium [2] = test: Antibacterial activity against 9.0 x 10^7 CFU/ml Salmonella enterica serovar Typhimurium 14028s assessed as decrease in growth rate at 2.5 uM by spectrophotometry; type: functional, organism-based; conditions: Salmonella enterica subsp. enterica serovar Typhimurium
Salmonella typhimurium [3] = test: Antibacterial activity against Salmonella enterica serovar Typhimurium 14028s by CLSI M7-A7 microdilution method; type: functional, Salmonella enterica subsp. enterica serovar Typhimurium
Salmonella typhimurium [4] = test: Antibacterial activity against 9.0 x 10^7 CFU/ml Salmonella enterica serovar Typhimurium 14028s infected in RAW264.7 mouse macrophages assessed as decrease in intracellular bacterial level at 3 uM measured 2 hrs post infection; type: functional
Salmonella typhimurium [5] = test: Antibacterial activity against 9.0 x 10^7 CFU/ml Salmonella enterica serovar Typhimurium 14028s assessed as decrease in bacterial viable cell count at 2.5 uM by spectrophotometry; type: functional, organism-based; conditions: Salmonella enterica subsp. enterica serovar Typhimurium
Salmonella typhimurium [6] = test: Antibacterial activity against 9.0 x 10^7 CFU/ml Salmonella enterica serovar Typhimurium 14028s infected in RAW264.7 mouse macrophages assessed as decrease in intracellular bacterial level at 3 uM measured 18 hrs post infection; type: functional, organism-based; conditions: Salmonella enterica subsp. enterica serovar Typhimurium
Salmonella typhimurium [7] = test: Antibacterial activity against 9.0 x 10^7 CFU/ml Salmonella enterica serovar Typhimurium 14028s assessed as decrease in growth rate at 50 uM by spectrophotometry; type: functional, organism-based; conditions: Salmonella enterica subsp. enterica serovar Typhimurium
Serum = test: Drug concentration in rat serum administered as single bolus dose; type: ADME, organism-based; conditions: in vivo
Salmonella typhimurium [8] = test: Antibacterial activity against 9.0 x 10^7 CFU/ml Salmonella enterica serovar Typhimurium 14028s assessed as decrease in bacterial viable cell count at 2.5 uM by spectrophotometry relative to untreated control; type: functional, Salmonella enterica subsp. enterica serovar Typhimurium
[9] = Salmonella enterica subsp. enterica serovar Typhimurium

| MIC (Salmonella typhimurium [3]) [µM] | Drug uptake (Serum) [µg/mL] | Structure (SMILES) | Activity (Salmonella typhimurium [1]; [9]) | Activity (Salmonella typhimurium [2]) | Activity (Salmonella typhimurium [4]; [9]) | Activity (Salmonella typhimurium [5]) | Activity (Salmonella typhimurium [6]) | Activity (Salmonella typhimurium [7]) | fold change (FC) (Salmonella typhimurium [1]) | fold change (FC) (Salmonella typhimurium [8]) | Activity (Salmonella typhimurium [4]) [%] |
| --- | --- | --- | --- | --- | --- | --- | --- | --- | --- | --- | --- |
| > 160 |  | CC(=O)N[C@@H](CCCNC(=N)N)C(=O)NCCCCCC(=O)N[C@@H](CCCNC(=N)N)C(=O)N[C@@H](CCCNC(=N)N)C(=O)NCCCCCC(=O)N[C@@H](CCCNC(=N)N)C(=O)[C@H](CCCNC(=N)N)NC(=O)CCCCCNC(=O)N[C@@H](CCCNC(=N)N)C(=O)N[C@@H](CCCNC(=N)N)C(=O)NCCCCCC(=O)N[C@@H](CCCNC(=N)N)C(=O)NCCCCCC(=O)NCCC(=O)N1C[C@@H](COP(=O)(N2CCNCC2)N2C[C@@H](COP(=O)(N(C)C)N3C[C@@H](COP(=O)(N(C)C)N4C[C@@H](COP(=O)(N5CCNCC5)N5C[C@@H](COP(=O)(N(C)C)N6C[C@@H](COP(=O)(N(C)C)N7C[C@@H](COP(=O)(N(C)C)N8C[C@@H](COP(=O)(N(C)C)N9C[C@@H](COP(=O)(N%10CCNCC%10)N%10C[C@@H](COP(=O)(N(C)C)N%11C[C@@H](CO)O[C@@H](n%12cc(C)c(=O)[nH]c%12=O)C%11)O[C@@H](n%11ccc(N)nc%11=O)C%10)O[C@@H](n%10cc(C)c(=O)[nH]c%10=O)C9)O[C@@H](n9ccc(N)nc9=O)C8)O[C@@H](n8cnc9c(N)ncnc98)C7)O[C@@H](n7cnc8c(=O)[nH]c(N)nc87)C6)O[C@@H](n6cnc7c(N)ncnc76)C5)O[C@@H](n5cc(C)c(=O)[nH]c5=O)C4)O[C@@H](n4cnc5c(=O)[nH]c(N)nc54)C3)O[C@@H](n3cnc4c(=O)[nH]c(N)nc43)C2)O[C@@H](n2cc(C)c(=O)[nH]c2=O)C1 (stereo partly drawn) | inactive | inactive | inactive | inactive | inactive |  |  |  |  |
| 1.25 (≈ 6.92 µg/mL) | 1 | CC(=O)N[C@@H](CCCNC(=N)N)C(=O)NCCCCCC(=O)N[C@@H](CCCNC(=N)N)C(=O)N[C@@H](CCCNC(=N)N)C(=O)NCCCCCC(=O)N[C@@H](CCCNC(=N)N)C(=O)[C@H](CCCNC(=N)N)NC(=O)CCCCCNC(=O)N[C@@H](CCCNC(=N)N)C(=O)N[C@@H](CCCNC(=N)N)C(=O)NCCCCCC(=O)N[C@@H](CCCNC(=N)N)C(=O)NCCCCCC(=O)NCCC(=O)N1C[C@@H](COP(=O)(N(C)C)N2C[C@@H](COP(=O)(N(C)C)N3C[C@@H](COP(=O)(N(C)C)N4C[C@@H](COP(=O)(N(C)C)N5C[C@@H](COP(=O)(N(C)C)N6C[C@@H](COP(=O)(N(C)C)N7C[C@@H](COP(=O)(N(C)C)N8C[C@@H](COP(=O)(N(C)C)N9C[C@@H](COP(=O)(N(C)C)N%10C[C@@H](COP(=O)(N(C)C)N%11C[C@@H](CO)O[C@@H](n%12ccc(N)nc%12=O)C%11)O[C@@H](n%11cc(C)c(=O)[nH]c%11=O)C%10)O[C@@H](n%10cc(C)c(=O)[nH]c%10=O)C9)O[C@@H](n9ccc(N)nc9=O)C8)O[C@@H](n8cnc9c(=O)[nH]c(N)nc98)C7)O[C@@H](n7cnc8c(N)ncnc87)C6)O[C@@H](n6cc(C)c(=O)[nH]c6=O)C5)O[C@@H](n5cnc6c(N)ncnc65)C4)O[C@@H](n4cnc5c(=O)[nH]c(N)nc54)C3)O[C@@H](n3cc(C)c(=O)[nH]c3=O)C2)O[C@@H](n2cnc3c(=O)[nH]c(N)nc32)C1 (stereo partly drawn) |  | inactive |  | Active |  | Active |  |  |  |

The next lines start with the molecule.

| Structure (SMILES) | MIC (Salmonella typhimurium [3]) [µM] | Drug uptake (Serum) [µg/mL] | Activity (Salmonella typhimurium [1]; [9]) | Activity (Salmonella typhimurium [2]) | Activity (Salmonella typhimurium [4]; [9]) | Activity (Salmonella typhimurium [5]) | Activity (Salmonella typhimurium [6]) | Activity (Salmonella typhimurium [7]) | fold change (FC) (Salmonella typhimurium [1]) | fold change (FC) (Salmonella typhimurium [8]) | Activity (Salmonella typhimurium [4]) [%] |
| --- | --- | --- | --- | --- | --- | --- | --- | --- | --- | --- | --- |
| CC(=O)N[C@@H](CCCNC(=N)N)C(=O)NCCCCCC(=O)N[C@@H](CCCNC(=N)N)C(=O)N[C@@H](CCCNC(=N)N)C(=O)NCCCCCC(=O)N[C@@H](CCCNC(=N)N)C(=O)[C@H](CCCNC(=N)N)NC(=O)CCCCCNC(=O)N[C@@H](CCCNC(=N)N)C(=O)N[C@@H](CCCNC(=N)N)C(=O)NCCCCCC(=O)N[C@@H](CCCNC(=N)N)C(=O)NCCCCCC(=O)NCCC(=O)N1C[C@@H](COP(=O)(N(C)C)N2C[C@@H](COP(=O)(N(C)C)N3C[C@@H](COP(=O)(N(C)C)N4C[C@@H](COP(=O)(N(C)C)N5C[C@@H](COP(=O)(N(C)C)N6C[C@@H](COP(=O)(N(C)C)N7C[C@@H](COP(=O)(N(C)C)N8C[C@@H](COP(=O)(N(C)C)N9C[C@@H](COP(=O)(N(C)C)N%10C[C@@H](COP(=O)(N(C)C)N%11C[C@@H](CO)O[C@@H](n%12cc(C)c(=O)[nH]c%12=O)C%11)O[C@@H](n%11ccc(N)nc%11=O)C%10)O[C@@H](n%10cc(C)c(=O)[nH]c%10=O)C9)O[C@@H](n9ccc(N)nc9=O)C8)O[C@@H](n8cnc9c(N)ncnc98)C7)O[C@@H](n7cnc8c(=O)[nH]c(N)nc87)C6)O[C@@H](n6cnc7c(N)ncnc76)C5)O[C@@H](n5cc(C)c(=O)[nH]c5=O)C4)O[C@@H](n4cnc5c(=O)[nH]c(N)nc54)C3)O[C@@H](n3cnc4c(=O)[nH]c(N)nc43)C2)O[C@@H](n2cc(C)c(=O)[nH]c2=O)C1 (stereo partly drawn) | > 160 |  |  | inactive |  | inactive |  |  |  |  |  |
| CC(=O)N[C@@H](CCCNC(=N)N)C(=O)NCCCCCC(=O)N[C@@H](CCCNC(=N)N)C(=O)N[C@@H](CCCNC(=N)N)C(=O)NCCCCCC(=O)N[C@@H](CCCNC(=N)N)C(=O)[C@H](CCCNC(=N)N)NC(=O)CCCCCNC(=O)N[C@@H](CCCNC(=N)N)C(=O)N[C@@H](CCCNC(=N)N)C(=O)NCCCCCC(=O)N[C@@H](CCCNC(=N)N)C(=O)NCCCCCC(=O)NCCC(=O)N1C[C@@H](COP(=O)(N(C)C)N2C[C@@H](COP(=O)(N3CCNCC3)N3C[C@@H](COP(=O)(N(C)C)N4C[C@@H](COP(=O)(N(C)C)N5C[C@@H](COP(=O)(N6CCNCC6)N6C[C@@H](COP(=O)(N(C)C)N7C[C@@H](COP(=O)(N(C)C)N8C[C@@H](COP(=O)(N(C)C)N9C[C@@H](COP(=O)(N(C)C)N%10C[C@@H](COP(=O)(N%11CCNCC%11)N%11C[C@@H](CO)O[C@@H](n%12ccc(N)nc%12=O)C%11)O[C@@H](n%11cc(C)c(=O)[nH]c%11=O)C%10)O[C@@H](n%10cc(C)c(=O)[nH]c%10=O)C9)O[C@@H](n9ccc(N)nc9=O)C8)O[C@@H](n8cnc9c(=O)[nH]c(N)nc98)C7)O[C@@H](n7cnc8c(N)ncnc87)C6)O[C@@H](n6cc(C)c(=O)[nH]c6=O)C5)O[C@@H](n5cnc6c(N)ncnc65)C4)O[C@@H](n4cnc5c(=O)[nH]c(N)nc54)C3)O[C@@H](n3cc(C)c(=O)[nH]c3=O)C2)O[C@@H](n2cnc3c(=O)[nH]c(N)nc32)C1 (stereo partly drawn) | 0.156 (≈ 0.883 µg/mL) | 1 |  | Active |  | Active | Active |  | 2 | 3 | 56 |
| CC1(C)S[C@@H]2[C@H](NC(=O)[C@H](N)c3ccccc3)C(=O)N2[C@H]1C(=O)O [AMPICILLIN] | 20 (≈ 6.99 µg/mL) |  |  |  |  |  |  |  |  |  |  |
